From publication PMC12113707, “Microwave Assisted Synthesis of Antioxidant Dihydro-Pyrazole Hybrids as Possible Lipoxygenase Inhibitors” (Molecules, 2025)

Tests used:
[1] = target: T1, soybean lipoxygenase (SLOX-1) (Glycine max, UniProt P08170); assay: Inhibition of soybean lipoxygenase in vitro; format: biochemical; conditions: pH 9, sodium linoleate substrate; for inhibition at 100 µM: read-out: LOX% Inhibition, 100 μM (±SD); for IC50: read-out: LOX IC50 (μM) (±SD)
T1 construct: 200 μL of plant-derived lipoxygenase solution (1:9 × 10^−4 w/v, in saline); purchased Sigma Chemical, Co; host or cells: soybean (plant-derived)
T1 sequence (P08170 1-839): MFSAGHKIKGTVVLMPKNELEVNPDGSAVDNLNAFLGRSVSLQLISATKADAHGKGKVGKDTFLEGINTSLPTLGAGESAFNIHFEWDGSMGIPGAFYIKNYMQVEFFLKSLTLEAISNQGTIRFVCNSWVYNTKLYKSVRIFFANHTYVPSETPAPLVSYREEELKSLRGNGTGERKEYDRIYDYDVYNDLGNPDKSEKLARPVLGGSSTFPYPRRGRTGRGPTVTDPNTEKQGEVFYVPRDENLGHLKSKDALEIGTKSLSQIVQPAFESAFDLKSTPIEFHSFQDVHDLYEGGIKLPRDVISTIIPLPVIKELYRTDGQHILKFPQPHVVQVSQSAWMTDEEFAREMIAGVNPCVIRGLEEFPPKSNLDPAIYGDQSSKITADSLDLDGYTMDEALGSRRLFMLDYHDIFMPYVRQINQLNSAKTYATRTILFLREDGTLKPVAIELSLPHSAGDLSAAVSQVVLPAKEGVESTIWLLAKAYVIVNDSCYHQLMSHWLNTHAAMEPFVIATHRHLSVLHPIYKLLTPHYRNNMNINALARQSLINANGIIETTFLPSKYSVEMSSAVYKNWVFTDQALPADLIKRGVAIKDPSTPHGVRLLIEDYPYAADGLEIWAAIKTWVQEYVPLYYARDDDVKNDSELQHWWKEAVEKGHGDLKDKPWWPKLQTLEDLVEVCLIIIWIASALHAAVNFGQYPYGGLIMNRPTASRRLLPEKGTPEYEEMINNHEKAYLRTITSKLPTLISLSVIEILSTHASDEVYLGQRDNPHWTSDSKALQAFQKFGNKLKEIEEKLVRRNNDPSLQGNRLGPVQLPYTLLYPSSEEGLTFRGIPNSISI
Method: Soybean lipoxygenase SLOX-1 at pH 9 is used in vitro. During this assay linoleic acid sodium salt is converted to the corresponding 13-hydroperoxide. The reaction is recorded photometrically at 234 nm using the UV-based enzyme assay. […] It is known that soybean LOX inhibitory activity induced by NSAIDs is qualitatively quite similar to the inhibition observed on the rat mast cells LOX and this assay may be used as a qualitative or semi-quantitative screen for such activity.
To a quartz cell, add 790 μL of Tris-HCl pH = 9.0 buffer, 200 μL of plant-derived lipoxygenase solution (1:9 × 10^−4 w/v, in saline), 10 μL of the test compound solution and 100 μL of sodium linoleate solution (3 mM concentration). The absorbance was measured at 234 nm, where the change in absorbance due to the conversion of linoleic acid to […] was recorded. A solution of 790 μL of Tris-HCl pH = 9.0 buffer, 200 μL of a plant-derived lipoxygenase solution (1:9 × 10^−4 w/v, in saline), 10 μL of DMSO and 100 μL of sodium linoleate solution (3 mM concentration) was used as a control.

[2] = Inhibition of AAPH-induced linoleic acid peroxidation; conditions: 37 °C, 234 nm
Method: The ability of the compounds to inhibit AAPH-induced peroxidation of linoleic acid is another assay to investigate the antioxidant properties of the compounds. Azo compounds such as 2,2′-azobis dihydrochloride (2-amidinopropane) (AAPH) are capable of generating free radicals through spontaneous decomposition at 37 °C. The R- radicals react immediately with air-oxygen to produce peroxy radicals. AAPH was therefore used as the radical initiator and sodium linoleate as substrate subjected to peroxidation. Measurements were carried out at 234 nm using a UV/V is spectrophotometer. Dichalcone 1i substituted with two phenyl groups presents the lowest lipophilicity. […] Therefore, hydrophilic substituents offer an increase in activity.
The interaction of free radicals with cell membrane lipids induces free radical chain reactions, a process called lipid peroxidation. 930 μL of a phosphate buffer solution (0.05 M, pH = 7.4), 10 μL of the sodium linolate solution (16 mM in a buffer solution of Tris-HCl pH = 9) and 10 μL of the tested compounds (stock solutions 100 μΜ) were mixed and the oxidative procedure started after the addition of 50 μL AAPH at 37 °C under air conditions. The conjugated diene’s absorbance was measured at 234 nm at a thermostable spectrophotometer (37 °C) according to previous publication.

[3] = Experimental lipophilicity RM by reverse phase thin layer chromatography (RP-TLC); format: physicochemical; conditions: methanol-water mobile phase
Method: Lipophilicity is a main physicochemical parameter for bioactive molecules, linking solubility, ligand-target binding interactions, membrane permeability absorption, distribution, bioavailability, metabolism, elimination and toxicological effects (ADMET), playing an important role in biological activity. The experimental values of lipophilicity RM were determined by reverse phase thin layer chromatography. For the experimental determination of lipophilicity the hydrophilic-lipid phase system is a mixture of methanol- water (90/10%). The theoretical lipophilicity values are determined by the Bioloom program (http://biobyte.com/bb/prod/bioloom.html, accessed on 8 April 2024) (Table 1). According to the calculated clog P values, the most lipophilic compounds are 3c, 3d and 3f while the less lipophilic ones are compounds 5a and 5b.
Melting points were determined on a MEL-Temp II (Lab. Devices, Holliston, MA, USA). In vitro tests were carried out using a UV-Vis spectra and recorded on a Perkin-Elmer 554 double-beam spectrophotometer (Perkin-Elmer Corporation Ltd., Lane Beaconsfield, Bucks, UK). Infrared spectra (KBr pellets) were recorded with Perkin-Elmer 597 spectrophotometer (Perkin-Elmer Corporation Ltd., Lane Beaconsfield, Bucks, UK). The ^1H […] Magnetic Resonance (^1H-NMR) spectra were acquired on an Agilent 500/54 (DD2) at 500 MHz in CDCl3 using tetramethylsilane as an internal standard. Agilent 500/54 (DD2) ^13C NMR spectra were acquired at 125 MHz in CDCl3 solutions with tetramethylsilane serving as an internal reference. Coupling constants J are expressed in Hz, and chemical shifts are reported in ppm. Thermo Fisher Scientific Inc., Waltham, MA, USA, used MeOH as the solvent to calculate mass spectra using an LC-PDA-MS Thermo Finnigan system (LC Pump Plus, Autosampler, Surveyor PDA Plus Detector) interfaced with an ESI MSQ Plus (Thermo Finnigan). Thin-layer chromatography using 5554 F254 Silica gel/TLC cards (Merck and Fluka Chemie GmbH Buchs, Steinheim, Switzerland) was used to monitor the reaction progress. Silica gel 60 F254 plates with a diameter of 2 mm were utilized for preparative thin layer chromatography (prep TLC) by Merck KgaA (ICH078057). Merck (20 × 20 cm) plates were used for the experimental assessment of the lipophilicity using reverse phase thin-layer chromatography (RP-TLC) TLC-Silica gel 60 F254 DC Kieselgel.
In this experiment, TLC silica gel 60 F254 1.05715.0001 commercial glass plates from Merck were used. The plates were first immersed in a 5% v/v solution of liquid paraffin in petroleum ether and left for 90 s to become completely impregnated with the stable lipophilic phase. They were then activated by standing for 30 min in an oven at 40 °C and kept there until the time of use. A 70% v/v MeOH/H2O mixture was used as the mobile phase. The mobile phase was saturated with a few drops of liquid paraffin before being used. The spots of the compounds were placed on the plate at a distance of 2 cm from the edges of the plate and also from each other. The development of the spots on the plates was carried out in closed chromatography chambers where the atmosphere is saturated with the mobile phase at room temperature. At the end of development, the solvent-formed front was marked and the plates are dried at 80 °C for about 20–30 min. The appearance of the spots was made under an ultraviolet light lamp. The Rf values were the average of 5–6 measurements for each compound and assuming that the compounds will have been rotated to different positions on the plates. The RM values were calculated from the corresponding Rf values according to the equation [67].RM = log [(1/Rf) − 1](1)

[4] = Interaction with the stable free radical DPPH (reducing activity); conditions: 517 nm
Method: In general, the compounds present moderate to good antioxidant activity. It seems that the dibenzylacetones present satisfactory antioxidant activity compared to the hybrids at 60 min (1b, 1d and 1f).
The tested compounds (0.1 mM final concentration) dissolved in DMSO were incubated with a solution of DPPH in absolute ethanol in absence of light. The absorbance at 20 and 60 min at 517 nm was recorded at room temperature. NDGA was used as the reference compound.

Structure (SMILES)	inhibition at 100 µM [1]	RM ± SD [3]	IC50 [1]	AAPH% Inhibition, 100 μM (±SD) [2]	RA%, 100 μM, 60 min (±SD) [4]	RA%, 100 μM, 20 min (±SD) [4]
CN(C)c1ccc(/C=C/C(=O)/C=C/c2ccc(N(C)C)cc2)cc1 [Compound 1e, (1E,4E)-1,5-bis(4-dimethylaminophenyl)-1,4-pentadien-3-one]	24 ± 0.6%	−0.14 ± 0.009		50 ± 0.5%	100 ± 8.7%	
O=C(/C=C/c1ccc(C(F)(F)F)cc1)/C=C/c1ccc(C(F)(F)F)cc1 [Compound 1f, (1E,4E)-1,5-bis(4-(trifluoromethyl)phenyl)-1,4-pentadien-3-one]	24 ± 1.4%	0.57 ± 0.031		32 ± 1.4%	26 ± 0.9%	13 ± 0.8%
CN(C)c1ccc(/C=C/C2=NN(c3ccccc3)C(c3ccc(N(C)C)cc3)C2)cc1 (stereo not drawn) [Compound 2e]		0.95 ± 0.092	0.35 µM	78 ± 0.4%	45 ± 1%	24 ± 0.9%
FC(F)(F)c1ccc(/C=C/C2=NN(c3ccccc3)C(c3ccc(C(F)(F)F)cc3)C2)cc1 (stereo not drawn) [Compound 2f]	14 ± 0.8%	1.31 ± 0.031		52 ± 2.5%		5 ± 0.2%
CN(C)c1ccc(/C=C/C2=NN(c3ccc(Br)cc3)C(c3ccc(N(C)C)cc3)C2)cc1 (stereo not drawn) [Compound 3e]		1.25 ± 0.086	20 µM	80 ± 2.9%	53 ± 0.9%	30 ± 0.9%
FC(F)(F)c1ccc(/C=C/C2=NN(c3ccc(Br)cc3)C(c3ccc(C(F)(F)F)cc3)C2)cc1 (stereo not drawn) [Compound 3f]	38 ± 2.6%	1.47 ± 0.044		75 ± 2.7%	14 ± 1.2%	5 ± 0.4%

The next lines start with results.

inhibition at 100 µM [1]	RM ± SD [3]	IC50 [1]	Structure (SMILES)	AAPH% Inhibition, 100 μM (±SD) [2]	RA%, 100 μM, 60 min (±SD) [4]	RA%, 100 μM, 20 min (±SD) [4]
42 ± 2.4%	1.00 ± 0.084		C(=C\c1ccccc1)/C1=NN(c2ccccc2)C(c2ccccc2)C1 (stereo not drawn) [Compound 2a, (E)-1,5-Diphenyl-3-styryl-4,5-dihydro-1H-pyrazole]	44 ± 0.7%	17 ± 1.2%	
24 ± 1.9%	0.78 ± 0.065		Fc1ccc(/C=C/C2=NN(c3ccccc3)C(c3ccc(F)cc3)C2)cc1 (stereo not drawn) [Compound 2b]	39 ± 0.3%	15 ± 0.6%	2 ± 0.1%
	1.07 ± 0.067	2.5 µM	Clc1ccc(/C=C/C2=NN(c3ccccc3)C(c3ccc(Cl)cc3)C2)cc1 (stereo not drawn) [Compound 2d]	75 ± 0.1%		6 ± 0.4%
51 ± 2.2%	1.11 ± 0.068		Brc1ccc(N2N=C(/C=C/c3ccccc3)CC2c2ccccc2)cc1 (stereo not drawn) [Compound 3a, (E)-1-(4-bromophenyl)-5-phenyl-3-styryl-4,5-dihydro-1H-pyrazole]	75 ± 1.4%	22 ± 0.9%	10 ± 0.3%
17 ± 0.8%	1.03 ± 0.057		Fc1ccc(/C=C/C2=NN(c3ccc(Br)cc3)C(c3ccc(F)cc3)C2)cc1 (stereo not drawn) [Compound 3b]	63 ± 2.6%	6 ± 0.6%	2 ± 0.1%
	1.46 ± 0.049	30 µM	Brc1ccc(/C=C/C2=NN(c3ccc(Br)cc3)C(c3ccc(Br)cc3)C2)cc1 (stereo not drawn) [Compound 3c]	40 ± 1.8%	24 ± 0.9%	2 ± 0.1%
11 ± 0.8%	1.39 ± 0.069		Clc1ccc(/C=C/C2=NN(c3ccc(Br)cc3)C(c3ccc(Cl)cc3)C2)cc1 (stereo not drawn) [Compound 3d, (E)-1-(4-bromo-phenyl)-5-(4-chloro-phenyl)-3-(4-chlorostyryl)-4,5-dihydro-1H-pyrazole]	52 ± 2.5%		6 ± 0.5%
